Measured values published in US20240376142A1, “A-SALIDROSIDE, METHOD FOR PREPARING SAME, AND APPLICATION THEREOF” (SHANDONG HENGLU BIOTECH. CO., LTD., priority 2021, published 2024).

Tests used:
[1] = DPPH radical scavenging experiment; format: biochemical; settings: for DPPH Radical Scavenging Rate: 500 mg/L aqueous sample solution mixed 1:1 with 0.04 mg/ml DPPH ethanol solution, dark, 517 nm
Excerpt: Free radicals play a significant role, either directly or indirectly, in oxidative processes and are widely involved in the physiological and pathological processes of the body. When the body has an excess of free radicals, the body damage can be caused by free radicals through oxidative actions. Phenolic compounds, being donors of phenolic hydroxyl groups, form the structural basis for antioxidant activity. This experiment employs the DPPH [1,1-Diphenyl-2-trinitrophenyl hydrazine, also known as 1,1-Diphenyl-2-picrylhydrazyl, (free radical)] radical scavenging reaction to study the scavenging efficiency of α-salidroside and β-salidroside on DPPH radicals. • (1) α-salidroside solution: prepared as a 500 mg/L aqueous solution using conventional methods. • (2) β-salidroside solution: prepared as a 500 mg/L aqueous solution using conventional methods. • (3) DPPH ethanol solution: prepared as a 0.04 mg/ml solution in anhydrous ethanol using conventional methods. • (1) 0.9 mL each of α-salidroside solution and β-salidroside aqueous solution were taken separately, and 0.9 mL of DPPH anhydrous ethanol solution was added to each, mixed well, and then left to stand in the dark. Samples were taken at 0.5 h, 1 h, 2 h, and 4 h respectively, and the absorbance was measured at a wavelength of 517 nm. The average of three parallels was calculated and noted as Ai. • (2) 0.9 mL each of α-salidroside solution and β-salidroside aqueous solution were taken separately, and 0.9 mL of anhydrous ethanol was added to each, mixed well, and then left to stand in the dark […]. Samples were taken at 0.5 h, 1 h, 2 h, and 4 h respectively, and the absorbance was measured at a wavelength of 517 nm. The average of three parallels was calculated and noted as Aj. • (3) 0.9 mL of distilled water was taken, to which 0.9 mL of DPPH ethanol solution was added, mixed well, and the absorbance was measured at a wavelength of 517 nm. The average of three parallels was calculated and noted as A4. • (4) 0.9 mL of anhydrous ethanol was taken, to which 0.9 mL of distilled water was added, mixed well, and was used as a blank. The DPPH radical scavenging rate was calculated according to the formula below, and the results were recorded in Table 3. [formula]

[2] = Hydroxyl radical scavenging experiment (Fenton reaction, 1,10-phenanthroline spectrophotometry); format: biochemical; settings: for Hydroxyl Radical Scavenging Rate: 37° C., 30 minutes, 536 nm
Excerpt: The Hydroxyl Radical Scavenging Activity is an important indicator for measuring the antioxidant capacity of substances. Currently, the main analytical testing methods for hydroxyl radicals include High Performance Liquid Chromatography, Chemiluminescence, Fluorescence Analysis, and Spectrophotometry, etc. Among them, the most commonly used method for measuring the hydroxyl radical scavenging activity is Spectrophotometry, which can be used to determine the inhibition of the absorbance decline of the colorant 1,10-Phenanthroline by the sample, thereby reflecting the ability of the sample to scavenge hydroxyl radicals. The measurement principle is as follows: H2O2/Fe^2+ produces hydroxyl radicals through the Fenton reaction, oxidizing Fe^2+ in the 1,10-Phenanthroline-Fe^2+ aqueous solution to Fe^3+, leading to a decline in the absorbance at 536 nm. The degree to which the sample inhibits the rate of absorbance decline at 536 nm reflects the ability of the sample to scavenge hydroxyl radicals.
• (1) FeSO4 Solution: 1.5 mM and 5 mM FeSO4 aqueous solutions were prepared using conventional methods. • (2) PBS Buffer: • 1) 0.2 mol/L sodium dihydrogen phosphate and 0.2 mol/L disodium hydrogen phosphate aqueous solutions were prepared. • 2) 19 mL of sodium dihydrogen phosphate aqueous solution and 81 mL of disodium hydrogen phosphate aqueous solution were taken, mixed well, and the pH was adjusted to 7.4 (measured with a pH meter, and the pH value was adjusted with 0.1 mol/L sodium hydroxide or 0.1 mol/L phosphoric acid if necessary). • (3) 1,10-Phenanthroline: 0.75 mM and 3 mM aqueous solutions were prepared using conventional methods. • (4) Hydrogen Peroxide (H2O2) Solution: 0.1% (v/v) aqueous solution was prepared using conventional methods. • (5) α-salidroside Solution: 1 mg/mL and 4 mg/mL aqueous solutions were prepared using conventional methods. • (6) β-salidroside Solution: 1 mg/mL and 4 mg/mL aqueous solutions were prepared using conventional methods.
Scheme 1: Using 5 mM FeSO4 aqueous solution, 0.1% hydrogen peroxide, 1 mg/mL α-salidroside aqueous solution or 1 mg/mL β-salidroside aqueous solution, and 3 mM 1,10-Phenanthroline aqueous solution, the following operation steps were carried out for the reaction.
Scheme 2: Using 1.5 mM FeSO4 aqueous solution, 0.1% hydrogen peroxide, 4 mg/mL α-salidroside aqueous solution or 4 mg/mL β-salidroside aqueous solution, and 0.75 mM 1,10-Phenanthroline aqueous solution, the following operation steps were carried out for the reaction.
Specific Operation Steps: (1) 40 μL of α-salidroside solution or β-salidroside solution was taken separately, to which 40 μL of FeSO4 solution, 60 μL of PBS buffer solution (pH 7.4), and 40 μL of 1,10-Phenanthroline solution were added respectively, mixed well. Then, 40 μL of H2O2 solution was added and mixed well again. […] Using distilled water as blank, the absorbance at 536 nm wavelength was measured and the average of three parallels was calculated and noted as Ai.
(2) 80 μL of distilled water was taken, to which 40 μL of FeSO4 solution, 60 μL of PBS buffer solution (pH 7.4), and 40 μL of 1,10-Phenanthroline solution were added and mixed well. […] Using distilled water as blank, the absorbance at 536 nm wavelength was measured and the average of three parallels was calculated and noted as Aj. […] Using distilled water as blank, the absorbance at 536 nm wavelength was measured and the average of three parallels was calculated and noted as A0.

[3] = Scheme 1: 1 mg/mL sample solution, 5 mM FeSO4, 0.1% hydrogen peroxide, 3 mM 1,10-Phenanthroline
[4] = Scheme 2: 4 mg/mL sample solution, 1.5 mM FeSO4, 0.1% hydrogen peroxide, 0.75 mM 1,10-Phenanthroline

| Structure (SMILES) | DPPH Radical Scavenging Rate ([1]; 0.5 h) | DPPH Radical Scavenging Rate ([1]; 1 h) | DPPH Radical Scavenging Rate ([1]; 2 h) | DPPH Radical Scavenging Rate ([1]; 4 h) | capability of scavenging DPPH radicals compared to β-salidroside ([1]; in words, from Table 3, especially when the reaction time is over 1 hour) | Hydroxyl Radical Scavenging Rate [2, 3] | Hydroxyl Radical Scavenging Rate [2, 4] | capability in scavenging hydroxyl radicals compared to β-salidroside ([2]; in words, from Table 4, both schemes) |
| --- | --- | --- | --- | --- | --- | --- | --- | --- |
| OC[C@H]1O[C@H](OCCc2ccc(O)cc2)[C@H](O)[C@@H](O)[C@@H]1O [α-salidroside, 2-(4-hydroxyphenyl) ethyl-α-D-glucopyranoside] | 19.29% | 28.45% | 31.00% | 34.12% | higher capability of scavenging DPPH radicals compared to β-salidroside | 28.69% | 21.62% | far superior to that of β-salidroside |
| OC[C@H]1O[C@@H](OCCc2ccc(O)cc2)[C@H](O)[C@@H](O)[C@@H]1O [β-salidroside, reference compound] | 19.96% | 23.21% | 28.24% | 28.33% |  | 13.92% | 4.05% |  |
